Measurements taken from patent publication US20190153051A1, “FUSION PROTEIN OF C2 DOMAIN AND AKT KINASE DOMAIN FRAGMENT AND USE THEREOF” (Gachon University of Industry-Academic Cooperation …, priority 2017, published 2019).
Blank lines part the entries; values can stand above or below the molecule they belong to.

Assays:
Akt protein [1] = assay: Western blotting of Akt protein phosphorylation in insulin-treated HepG2 cells; type: cell-based, human
Procedure: First, male C57BL/6 mice at 8 weeks were divided into the fasted group wherein the mice were fasted for 16 hours and the refed group wherein the mice were fasted for 16 hours and then fed for 4 hours. Each group was sub-divided into the high fat diet group (HFD) and the normal diet group (chow). The liver cells were extracted from the raised mice by the same manner and under the same conditions as described in Example 1. The extracted liver cells were lysed in a lysis buffer containing phosphatase (Sigma-Aldrich, USA) and protease inhibitor (Sigma-Aldrich, USA). Proteins extracted from 2 to 3 mg of the liver tissue were homogenized by using a tissue homogenizer (TissuLyser, Qiagen, USA) for 1.5 minutes at a frequency of 1/30 sec. The homogenized lysate was centrifuged at 12,000 rpm for 15 minutes and the supernatant was obtained. The amount of the extracted protein was quantified by using a protein assay kit (Bio-Rad Laboratories, USA), and at this time BSA was used as a standard sample. 3 mg of the protein was mixed with 6× loading buffer, followed by electrophoresis using 10% SDS-PAGE gel. The electrophoresed protein was transferred onto a polyvinylidene fluoride (PVDF) membrane by using a transfer buffer at 4° C. with 120 V for 1.5 hours. The PVDF membrane on which the protein was transferred was pretreated with a blocking buffer prepared by mixing 5% skim milk with TBS buffer (TBS-T, pH 7.6) supplemented with Tween 20 for 30 minutes, and the membrane was washed with TBS-T. The washed membrane was added with the antibody against Akt (Cell Signaling Technology, USA), Akt(T308) (Cell Signaling Technology, USA), Akt(S473) (Cell Signaling Technology, USA), FOXO3A (Cell Signaling Technology, USA), FOXO3A(S253) (Cell Signaling Technology, USA), GSK-3β (Cell Signaling Technology, USA) or GSK-3β(S9) (Cell Signaling Technology, USA) protein as a primary antibody, followed by reaction at 4° C. for 12 hours. At this time, the antibody against actin (Santa Cruz Biotechnology, USA) protein was used for the control group. Upon completion of the reaction, the secondary antibody corresponding to the primary antibody was added thereto, followed by reaction at room temperature for 30 minutes. The PVDF membrane was washed with TBS-T buffer three times. The washed PVDF membrane was added with ECL solution (Thermo Scientific, USA), followed by image observation.
To investigate the changes in insulin sensitivity when insulin was added to the fatty liver cell model constructed in vitro, the phosphorylations of those proteins that were involved in insulin signaling mechanism were examined. PA was added to the human HepG2 cells prepared in Example 3, followed by reaction for 24 hours. […]

[2] = ITC of phospholipid liposomes with calcium; type: binding; conditions: liposome with POPC 80:20, 25° C.
Procedure: (§1) Particularly, a protein solution was prepared by suspending a protein in 10 mM HEPES (pH 7.0). Phospholipid related ligand was titrated in the protein solution at 25° C. by using iTC200 micro calorimetry system (MicroCal Inc., USA), and the generated graph was corrected using Origin software (MicroCal Inc., USA). At this time, the phospholipid related ligand was prepared in the form of liposome by mixing POPC (1-palmitoyl-2-oleoyl-sn-glycero-3-phosphocholin) chloroform solution and POPS (1-palmitoyl-2-oleoyl-sn-glycero-3-phosphoserine), PI(3,4)P2 (1,2-dipalmotoyl-sn-glycero-3-phosphatidylinositol-3,4-[…]), PI(4,5)P2 (1,2-dipalmotoyl-sn-glycero-3-phosphatidylinositol-4,5-trisphosphate) or PI(3,4,5)P3 (1,2-dipalmotoyl-sn-glycero-3-phosphatidylinositol-3,4,5-trisphosphate) at the molar ratio of 80:20. The organic solvent was eliminated. The organic solvent was removed and a single layer lamellar was produced in HEPES (pH 7.0) using phospholipids.

[3] = Protein-lipid binding assay (PIP-strips)
Procedure: (§2) Particularly, the analysis was performed by using membrane-immobilized lipid strips (PIP-strips, Echelon Biosciences Inc., USA). At this time, the membrane was loaded with LPA (lysophosphatidic acid), LPC (lysophosphatidylcholine), PI (phosphatidylinositol), PE (phosphatidylethanolamine), PC (phosphatidylcholine), S1P (sphingosine 1-phosphate), PA (phosphatidic acid) or PS (phosphatidylserine) at the concentration of 100 pmol, to which calcium was added at the concentration of 0, 0.05 or 0.1 mM. Each membrane was pre-treated with a blocking buffer [fatty acid free 3% BSA (bovine serum albumin), 0.1% (v/v) Tween 20 and TBS (Tris-buffered saline), pH 7.5] at room temperature for 30 minutes. The PH domain of Atk protein purified in Example <7-1> was suspended in a blocking buffer at the concentration of 3.5 mg/Ml. The suspended protein was reacted with the membrane-immobilized lipid strip at room temperature for 30 minutes. The protein bound with lipid was identified by using the PH domain antibody.
To investigate whether or not the binding of the PKCβ protein C2 domain purified in Example <8-1> to PI(4,5)P2 or PI(3,4,5)P3 was inhibited by calcium, protein-lipid binding assay and ITC were performed. First, protein-lipid binding assay was performed by the same manner under the same conditions as described in Example <7-2> except that the PKCβ protein C2 domain was used instead of the Akt protein PH domain. At this time, D187/193A and D246/248A mutant proteins of the C2 domain were used as the control group, and the results are shown in FIG. 8.

[4] = ITC of C2 domain with PI(3,4,5)P3 liposomes; type: binding
Procedure: as §1
In the meantime, in ITC, the phospholipid related ligand was prepared in the form of liposome by mixing POPC chloroform solution and PI(3,4,5)P3 at the molar ratio of 80:20. Then, ITC was performed by the same manner under the same conditions as described in Example <7-3> except that the PKCβ protein C2 domain or D187/193A, the C2 domain mutant, was used.

CHO cells = assay: Migration of mCherry-tagged PH or C2 domain to the cell membrane, fluorescence microscopy; type: cell-based
Source text: First, the PH domain of Akt1 protein or the C2 domain of PKCβ protein was obtained by PCR using the primers consisting of the nucleotide sequences represented by […]. The obtained PCR product was cloned in pmCherry-C1 vector (Takara Clontech, Japan) by the conventional cloning method. CHO cells were transfected with the prepared vector by using lipofectamine according to the manufacturer's protocol. The transfected cells were selected by using blastidicin. Then, mCherry positive cells were confirmed by flow cytometry.
PMA at the concentration of 100 nM, ionomycin at the concentration of 10 μM or insulin at the concentration of 100 nM was added to the cells expressing the PH domain of Akt1 protein or the C2 domain of PKCβ protein and the location of the expressed protein was confirmed by fluorescence microscopy.

Akt protein [5] = assay: Western blot of Akt activation in HepG2 cells co-transfected with PI3K under increased calcium; type: cell-based, human
[6] = Protein-lipid binding assay (PIP-strips); remark: listed apart in the source
Procedure: as §2

[7] = HepG2, PMA 0, 10, 50 or 100 nM or ionomycin 0, 1, 5, 10 or 20 μM, 100 nM insulin, dose-dependent
[8] = membrane-immobilized lipid strips
[9] = intracellular calcium concentration increased (PMA 100 nM, ionomycin 10 μM)

Molecule: C[C@H](CCC(=O)O)C[C@H](C)C[C@H](C)C(=O)/C=C(\O)[C@H](C)C[C@H](C)C/C=C/[C@@H](C)[C@@H](O)[C@@H](C)[C@@H](O)C[C@@H]1CC[C@@](C)([C@H]2CC[C@@](C)([C@@H](C)O)O2)O1 [ionomycin]
phosphorylation of Akt protein (Akt protein [1]; [7]): significantly inhibited

Molecule: CCCCCCCCCCCCCC(=O)O[C@@H]1[C@@H](C)[C@@]2(O)[C@@H](C=C(CO)C[C@]3(O)C(=O)C(C)=C[C@@H]23)[C@@H]2C(C)(C)[C@]12OC(C)=O [PMA, phorbol myristate acetate]
phosphorylation of Akt protein (Akt protein [1]; [7]): significantly inhibited

Molecule: COc1ccc(CCN(C)CCCC(C#N)(c2ccc(OC)c(OC)c2)C(C)C)cc1OC (stereo not shown) [verapamil]
phosphorylation of Akt protein (Akt protein [1]; HepG2, verapamil 0, 5, 10 or 100 nM, effect of insulin addition): increased

Molecule: C2 domain of PKCβ protein: purified C2 domain of PKCβ protein, SEQ. ID. NO: 14
effect of calcium on binding to PI(3,4,5)P3 ([3]; calcium 0, 0.05 or 0.1 mM): promoted
effect of calcium on binding to PI(4,5)P2 ([3]; calcium 0, 0.05 or 0.1 mM): promoted
binding to PI(3,4,5)P3 [3, 8]: strongly bound
binding to PI(4,5)P2 [3, 8]: strongly bound
binding to PI(3,4,5)P3 by ITC ([4]; absence of calcium): not induced
binding to PI(3,4,5)P3 by ITC ([4]; increased calcium concentration, POPC:PI(3,4,5)P3 80:20 liposome): strongly bound
migration to the cell membrane (CHO cells; insulin 100 nM added): did not migrate to the cell membrane
migration to the cell membrane (CHO cells; [9]): migrated as the intracellular calcium concentration was increased

Molecule: wild type Akt protein: control: wild type Akt protein containing the PH domain, SEQ. ID. NO: 16
Akt protein activation by PI3K (Akt protein [5]): activated
Akt protein activation as calcium concentration increases (Akt protein [5]; PMA 0, 10, 50 or 100 nM, ionomycin 20 μM, 1 hour): inhibited

B1: PH domain of Akt protein: purified PH domain of Akt1 protein, SEQ. ID. NO: 13 (protein)
chain: MSDVAIVKEGWLHKRGEYIKTWRPRYFLLKNDGTFIGYKERPQDVDQREAPLNNFSVAQCQLMKTERPRPNTFIIRCLQWTTVIERTFHVETPEEREEWTTAIQTVADGLKKQEEEEMDFRSGSPSDNSGAEEMEVSLAKPKHR
modifications: artificial_PH domain of Akt protein
effect of calcium on binding to PI(3,4,5)P3 ([3]; calcium 0, 0.05 or 0.1 mM): inhibited as calcium concentration was increased
binding to PI(3,4,5)P3 [3, 8]: bound
effect of calcium on binding to PI(3,4)P2 ([6]; calcium 0, 0.05 or 0.1 mM): inhibited as calcium concentration was increased
binding to PI(3,4)P2 [6, 8]: bound
migration to the cell membrane (CHO cells; insulin 100 nM added): migrated to the cell membrane
migration to the cell membrane (CHO cells; [9]): not observed

Further lines, results first:

binding to calcium [2]: high affinity
Molecule: CCCCCCCCCCCCCCCC(=O)OCC(COP(=O)(O)OC1C(O)C(O)C(OP(=O)(O)O)C(OP(=O)(O)O)C1O)OC(=O)CCCCCCCCCCCCCCC (stereo not shown) [PI(3,4)P2, 1,2-dipalmotoyl-sn-glycero-3-phosphatidylinositol-3,4-triphosphate]

binding to calcium [2]: high affinity
Molecule: CCCCCCCCCCCCCCCC(=O)OCC(COP(=O)(O)OC1C(O)C(OP(=O)(O)O)C(OP(=O)(O)O)C(OP(=O)(O)O)C1O)OC(=O)CCCCCCCCCCCCCCC (stereo not shown) [PI(3,4,5)P3, 1,2-dipalmotoyl-sn-glycero-3-phosphatidylinositol-3,4,5-trisphosphate]

binding to calcium [2]: high affinity
Molecule: CCCCCCCCCCCCCCCC(=O)OCC(COP(=O)(O)OC1C(O)C(O)C(OP(=O)(O)O)C(OP(=O)(O)O)C1O)OC(=O)CCCCCCCCCCCCCCC (stereo not shown) [PI(4,5)P2, 1,2-dipalmotoyl-sn-glycero-3-phosphatidylinositol-4,5-trisphosphate]
